Legend:
[1] = test system: Erk 1/2 phosphorylation (pErk); assay: Erk phosphorylation by Western blotting in differentiated C2C12 cells; format: cell-based, mouse; settings: peptides 100 µM, insulin 100 nM, Western blot, three independent experiments
Experimental: (§1) C2C12 cells were used as a well-described model of skeletal muscle to evaluate the effect of peptides in gene expression, cell signaling, and glucose uptake. These cells were kindly provided by Prof. Patricia Brum, School of Physical Education and Prof. Anselmo Moriscot, Biomedical Science Institute, University of São Paulo, São Paulo, Brazil. C2C12 cells were cultured and maintained in high glucose Dulbecco’s modified Eagle’s medium (DMEM; Thermo Fisher Scientific, São Paulo, SP, Brazil) supplemented with 10% fetal bovine serum (FBS), 100 U/mL penicillin, and […] streptomycin in a humidified atmosphere of 5% CO2 at 37 °C. The cells were used in low pass (between passages 2 and 4) for all experiments to maintain the potential for differentiation of cultures. […]
(§2) Western blotting experiments were performed to evaluate the expression levels of specific proteins. […] Western blot bands were visualized with Super-Signal West Pico Chemiluminescent substrate (Thermo Scientific) using the ChemiDoc™ MP Imaging System (BioRad, Hercules, CA, USA), and quantified using ImageJ 1.49 software. All results are expressed as the means ± standard error of the mean (SEM). […] Data were statistically analyzed with GraphPad Prism software (GraphPad Software Inc, San Diego, CA, USA). […]

[2] = test system: epididymal adipose tissue and tibial skeletal muscle of WT mice; assay: mRNA expression of energy metabolism genes in tissues after ip administration (qPCR); format: in vivo, mouse; settings: 600 µg/kg ip
Experimental: Real-time PCR (qPCR) experiments were performed to evaluate the mRNA expression levels, at basal and under stimulus, for peroxisome proliferator activator receptor gamma (PPARγ), peroxisome proliferator activator receptor alpha (PPARa), cAMP responsive element binding protein 1 (Creb1), aldolase A, fructose-bisphosphate (ALDOA), cytochrome c oxidase subunit IV isoform 1 (Cox4i1), phosphoglycerate mutase 2 (PGAM2), troponin I, skeletal, fast 2 (TNNI2), […] (TNNT3), small muscle protein X-linked (SMPX), myosin, […] (MYH1), insulin-growth factor 1 (IGF1), Glucose transporter 4 (GLUT4), and lipoprotein lipase (LPL). Primers sequences are described in Supplementary Materials (Table S1). […] Quantitative PCRs were performed using the Prism 7900 sequence detection system (Applied Biosystems, Foster City, CA, USA) with 100 nM primer and 20 ng cDNA. The expression of mRNA targets was normalized by expression of gene glyceraldehyde 3-phosphate dehydrogenase (GAPDH) or hipoxantina-guanina fosforibosiltransferase (HPRT) and expressed as relative values using the 2 DDCt method. […]
Figure 6 Ric4 stimulated mRNA expression levels of genes related to energy metabolism. WT mice were treated with vehicle (Control) or Ric4 (600 ug/kg, ip) and gene expression was evaluated by qPCR. […]

[3] = test system: Akt phosphorylation (pAkt, S473); assay: Akt phosphorylation by Western blotting in differentiated C2C12 cells; format: cell-based, mouse; settings: peptides 100 µM, insulin 100 nM, Western blot, three independent experiments
Experimental: as §1, §2

Substance: LASVSTVLTSKYR [Ric4, intracellular peptide derived from hemoglobin alpha subunit, last 13 C-terminal amino acids]
- phosphorylation of Erk (pErk over total Erk) [1]: activated
- GLUT4 mRNA levels in epididymal adipose tissue [2]: increased
- expression levels of genes related to energy metabolism in epididymal adipose tissue (LPL, PPARγ, PPARa, GLUT4, IGF1) [2]: stimulated the expression levels
- phosphorylation of Akt (pAkt over total Akt) [3]: activated

Substance: Insulin
- phosphorylation of Erk (pErk over total Erk) [1]: increased
- phosphorylation of Akt (pAkt over total Akt) [3]: increased

Reference: paper PMC8708875 (Pharmaceutics, 2021)
